This is an account of results in patent US20110160272A1, “METHODS AND COMPOSITIONS FOR USE OF ANGIOGENESIS INHIBITORS IN THE PREVENTION AND/OR CONTROL OF EPILEPSY” (priority 2004, published 2011).

The test deals with KASE rats. The experiment in a line: Effect of angiogenesis inhibitor on spontaneous seizure development after kainic acid-induced status epilepticus (KASE). In kind it is in vivo, rat. Particulars: KASE rats (n=4); twice daily injections for fourteen consecutive days beginning one week following KASE; first three weeks of monitoring, daily 8-hour observation sessions; relative to untreated KASE or control rats. From the text: We have administered HET0016, an inhibitor of angiogenesis, during the “latent period” that follows KASE and precedes the emergence of spontaneous seizures, to assess whether the development of spontaneous seizures could be impeded. Optimal doses for achieving antiangiogenesis have been established for some of these compounds in other pathological contexts and we have acquired some knowledge of the progression of angiogenesis following KASE using our temporal BrdU assay. On the basis of these observations, we administered a proven antiangiogenic compound at the optimal dosage established in other pathological contexts. This compound was administered to KASE rats (n=4) via twice daily injections for fourteen consecutive days, beginning one week following KASE. Four untreated KASE rats (n=4) received sham injections of diluent and were processed in parallel. Control rats (n=2) received neither KASE nor antiangiogenic therapy. The occurrence of spontaneous seizures in these cohorts was monitored during daily during 8-hour observation sessions beginning one week following KASE, and continues to the present.

In the case of `CCCCc1ccc(N=CNO)c(C)c1` [HET0016], the “development of spontaneous seizures (cumulative seizures, FIG. 7)” value is given as “impeded the development of spontaneous seizures”.
